In patent US12691109B2, “Bifunctional aggregation-induced emission luminogen for monitoring and killing of multidrug-resistant bacteria” (The Hong Kong University of Science and Technology, priority 2018, dated 2026):

Experiments:
Assay type in all cases: cell-based
MDR K. pneumoniae [1] = test: Bacteria staining with TriPE-NT and PI, CLSM; conditions: 10 min
Description: (§1) FIG. 21B is a graph plotting stained percentages for E. coli, MDR E. coli, K. pneumoniae, MDR K. pneumoniae, S. epidermidis, MDR S. epidermidis, S. aureus, and MDR S. aureus.
(§2) FIG. 21C is a graph plotting percentage of dead bacteria stained by propidium iodine (PI) after the bacteria were incubated with 10 μM of TriPE-NT or PI for 10 min.
(§3) TriPE-NT: Ex=405 nm, Em=500-560 nm; PI: Ex=514, Em=600-700. The scale bar is equal to 5 μm.
(§4) To indicate the status of the bacteria after TriPE-NT treatment, the bacteria was incubated with commercial dead bacteria-staining fluorescent reagent propidium iodide (PI) and TriPE-NT at the same time. Thanks to the AIE characteristics and water solubility of TriPE-NT, there was almost no background fluorescence in the imaging field. E. coli and S. epidermidis, which emitted bright orange (TriPE-NT) or red (PI) fluorescence, are clearly visualized under confocal laser scanning microscope (CLSM) (FIG. 21A-C, 22-23). […] In comparison, relatively low percentage of Gram-negative bacteria were stained by TriPE-NT (e.g., 88.1±9.8% E. coli, 84.3±12.7% MDR E. coli, 47.9±7.7% K. pneumoniae and 35.8±4.9% MDR K. pneumoniae) (FIG. 21B, FIG. 22). […] By contrast, relatively low percentages of E. coli (22.1±12.2% E. coli) were co-stained by both TriPE-NT and PI (FIGS. 21A, C), which is also similar to other Gram-negative bacteria (15.3±3.7%, MDR E. coli, 8.8±3.2%, K. pneumoniae and 6.4±2.6% MDR K. pneumoniae) (FIGS. 21A & C, 22). The reason for this difference possibly is ascribed to the extra membrane of Gram-negative bacteria which is absent in Gram-positive bacteria. These observations also illustrated that both Gram-negative bacteria and Gram-positive bacteria are vulnerable to TriPE-NT treatment, the possible reason is that these bacteria with negatively charged membranes, could anchor, uptake, and aggregate the positively charged probe, which restricts the intramolecular motion of the probe and causes their fluorescence emission.

K. pneumoniae [2] = test: Bacteria staining with TriPE-NT and PI, CLSM; conditions: 10 min
Description: as §1, §2, §3, §4

MDR E. coli [3] = test: Bacteria staining with TriPE-NT and PI, CLSM; conditions: 10 min
Description: as §1, §2, §3, §4

MDR S. epidermidis [4] = test: Light-enhanced bacteria killing, plate counting method; conditions: in darkness, 10 μM TriPE-NT
Description: (§5) FIGS. 15C-F are graphs depicting bacteria survival rates for bacteria that were incubated with TriPE-NT (10 μM) for 10 min, the bacteria suspensions (50 μL) were plated on agar plates and treated by white-light illumination (4 mW cm^−2) for 0, 2 and 30 min respectively. FIG. 15C is a graph plotting survival rate versus time of E. coli and MDR E. coli. FIG. 15D is a graph plotting survival rate versus time of K. pneumoniae and MDR K. pneumoniae. FIG. 15E is a graph plotting survival rate versus time of S. epidermidis and MDR S. epidermidis. FIG. 15F is a graph plotting survival rate versus time of S. aureus and MDR S. aureus.
(§6) The bacteria killing effect of TriPE-NT was evaluated on both wild and clinically isolated MDR bacteria by a traditional plate counting method. First, E. coli and S. epidermidis, as the representative of Gram-negative (G−) and Gram-positive (G+) bacteria, were used to determine the effective bactericidal concentration and illumination time. The bacteria were incubated with TriPE-NT (0, 5, 10 μM) for 0 and 10 min, the bacteria suspensions (50 μL) were plated on agar plates and treated by white-light illumination (4 mW cm^−2) for 2, 10 and 30 min respectively (FIGS. 16A-B). […] Thus, 10 μM TriPE-NT and light irradiation for 2 min or 30 min were set as experimental conditions in the following experiments.

MDR K. pneumoniae [5] = test: as above
Description: as §5, §6

K. pneumoniae [6] = test: as above
Description: as §5, §6

S. aureus [7] = test: as above
Description: as §5, §6

MDR E. coli [8] = test: as above
Description: as §5, §6

MDR S. aureus [9] = test: as above
Description: as §5, §6

MDR S. epidermidis [10] = test: Bacteria staining with TriPE-NT and PI, CLSM; conditions: 10 min
Description: as §1, §2
(§7) TriPE-NT: Ex=405 nm, Em=500-560 nm; PI: Ex=514, Em=600-700.
as §4

S. aureus [11] = test: Bacteria staining with TriPE-NT and PI, CLSM; conditions: 10 min
Description: as §1, §2, §7, §4

MDR S. aureus [12] = test: Bacteria staining with TriPE-NT and PI, CLSM; conditions: 10 min
Description: as §1, §2, §7, §4

S. epidermidis = test: Bacteria staining with TriPE-NT and PI, CLSM; conditions: 10 min
Description: (§8) TriPE-NT: Ex, 405 nm, Em, 500-560 nm; PI: Ex, 514 nm, Em, 600-700 nm.
as §1, §2, §4

E. coli = test: Bacteria staining with TriPE-NT and PI, CLSM; conditions: 10 min
Description: as §8, §1, §2, §4

MDR S. epidermidis [13] = test: Morphological changes of bacteria by FE-SEM and FEHR-TEM; conditions: TriPE-NT without or with light irradiation (4 mW cm^−2, 30 min)
Excerpt: FIGS. 24A-E show images of TriPE-NT-induced morphological changes of E. coli, MDR E. coli, S. epidermidis and MDR S. epidermidis with white light irradiation by FE-SEM and FEHR-TEM, bacteria without treatment were set as controls. […] FIG. 24D is a graph plotting elemental curve measured on the super-thin slices of TriPE-NT-treated E. coli from the region marked by the rectangle in FIG. 24C. FIG. 24 E is a graph plotting the elemental curve measured on the super-thin slices of TriPE-NT-treated S. epidermidis from the region marked by rectangle in FIG. 24C.
To gain more insights into the TriPE-NT-bacteria interactions, FE-SEM and field-emission high resolution transmission electron microscope (FEHR-TEM) were used to visualize the morphological changes of the bacteria under TriPE-NT treatment, selecting E. coli (G−), MDR E. coli (G−), and S. epidermidis (G+), MDR S. epidermidis (G+) as representatives.

[14] = 10 μM, white light 4 mW cm^−2, 30 min

COc1ccc(C(=Cc2ccc(-c3ccc4c5c(cccc35)C(=O)N(CCCCn3c[n+](Cc5ccc(F)cc5F)cn3)C4=O)cc2)c2ccc(OC)cc2)cc1 [TriPE-NT]
percentage of MDR K. pneumoniae co-stained by TriPE-NT and PI (dead bacteria) (MDR K. pneumoniae [1]; 10 μM TriPE-NT and PI): 6.4±2.6%
percentage of MDR K. pneumoniae stained by TriPE-NT (MDR K. pneumoniae [1]; 10 μM): 35.8±4.9%
percentage of K. pneumoniae co-stained by TriPE-NT and PI (dead bacteria) (K. pneumoniae [2]; 10 μM TriPE-NT and PI): 8.8±3.2%
percentage of K. pneumoniae stained by TriPE-NT (K. pneumoniae [2]; 10 μM): 47.9±7.7%
percentage of MDR E. coli co-stained by TriPE-NT and PI (dead bacteria) (MDR E. coli [3]; 10 μM TriPE-NT and PI): 15.3±3.7%
percentage of MDR E. coli stained by TriPE-NT (MDR E. coli [3]; 10 μM): 84.3±12.7%
killing of MDR S. epidermidis (MDR S. epidermidis [4]): killed nearly all
MDR K. pneumoniae killed (MDR K. pneumoniae [5]; [14]): > 61%
survival rate of MDR K. pneumoniae (MDR K. pneumoniae [5]; in darkness, 10 μM TriPE-NT): ~74.4±3.7%
K. pneumoniae killed (K. pneumoniae [6]; [14]): > 90%
survival rate of K. pneumoniae (K. pneumoniae [6]; in darkness, 10 μM TriPE-NT): ~59.9±6.5%
S. aureus killed (S. aureus [7]; [14]): > 98%
survival rate of S. aureus (S. aureus [7]; in darkness, 10 μM TriPE-NT): ~8.9±1.1%
MDR E. coli killed (MDR E. coli [8]; [14]): more than 96%
survival rate of MDR E. coli (MDR E. coli [8]; in darkness, 10 μM TriPE-NT): ~14.1±1.4%
MDR S. aureus killed (MDR S. aureus [9]; [14]): > 97%
survival rate of MDR S. aureus (MDR S. aureus [9]; in darkness, 10 μM TriPE-NT): ~22.4±1.9%
percentage of MDR S. epidermidis co-stained by TriPE-NT and PI (dead bacteria) (MDR S. epidermidis [10]; 10 μM TriPE-NT and PI): 74.8±11.4%
percentage of MDR S. epidermidis stained by TriPE-NT (MDR S. epidermidis [10]; 10 μM): 92.9±6.6%
percentage of S. aureus co-stained by TriPE-NT and PI (dead bacteria) (S. aureus [11]; 10 μM TriPE-NT and PI): 67.3±12.2%
percentage of S. aureus stained by TriPE-NT (S. aureus [11]; 10 μM): 86.1±1.9%
percentage of MDR S. aureus co-stained by TriPE-NT and PI (dead bacteria) (MDR S. aureus [12]; 10 μM TriPE-NT and PI): 57.4±1.3%
percentage of MDR S. aureus stained by TriPE-NT (MDR S. aureus [12]; 10 μM): 80.9±1.7%
percentage of S. epidermidis co-stained by TriPE-NT and PI (dead bacteria) (S. epidermidis; 10 μM TriPE-NT and PI): 80.9±15.8%
percentage of S. epidermidis stained by TriPE-NT (S. epidermidis; 10 μM): 96.2±5.6%
percentage of E. coli co-stained by TriPE-NT and PI (dead bacteria) (E. coli; 10 μM TriPE-NT and PI): 22.1±12.2%
percentage of E. coli stained by TriPE-NT (E. coli; 10 μM): 88.1±9.8%
morphology of MDR S. epidermidis (MDR S. epidermidis [13]): wrinkled bacterial cell wall
